According to patent publication US7442707B2, “CCI-779 polymorph and use thereof” (Wyeth, priority 2005, dated 2008):

Columns and labels:
[1] = Storage stability of crystalline Form II (conversion to Form I); assay type: physicochemical; settings: stored under room temperature and pressure
Text: Stable Form II can be prepared as described and stored under room temperature and pressure for greater than 3 months without conversion to Form I.

[2] = Powder flow characteristics from crystal morphology at bench scale; assay type: physicochemical; settings: Form II plate-like morphology vs Form I needle-like

Compound: COC1CC2CCC(C)C(O)(O2)C(=O)C(=O)N2CCCCC2C(=O)OC(C(C)CC2CCC(OC(=O)C(C)(CO)CO)C(OC)C2)CC(=O)C(C)/C=C(\C)C(O)C(OC)C(=O)C(C)CC(C)/C=C/C=C/C=C/1C (centres unmarked) [CCI-779 polymorph Form II, Rapamycin 42-ester with 3-hydroxy-2-(hydroxymethyl)-2-methylpropionic acid]
- storage time without conversion to Form I [1]: greater than 3 months
- powder flow characteristics relative to Form I [2]: better powder flow characteristics than form I
